Measurements taken from patent US8324226B2, “Therapeutic oxy-phenyl-aryl compounds and their use” (Cancer Research Technology Limited, priority 2007, dated 2012).
Where “and” joins values, the source holds several entries; their conditions need not be identical. Equal values may be shown once. Read-outs that look alike come from different tables or passages of the source.

Target: T1, CHK2 (Homo sapiens, UniProt O96017)
T1 construct: made in house
Test: CHK2 kinase activity assay (DELFIA, phosphorylation of a CDC25C peptide)
Type: biochemical
Conditions: ATP 30 μM, CHK2 1 nM, read-out: IC50, inhibition of CHK2 kinase activity in vitro

T1 sequence (O96017 whole entry): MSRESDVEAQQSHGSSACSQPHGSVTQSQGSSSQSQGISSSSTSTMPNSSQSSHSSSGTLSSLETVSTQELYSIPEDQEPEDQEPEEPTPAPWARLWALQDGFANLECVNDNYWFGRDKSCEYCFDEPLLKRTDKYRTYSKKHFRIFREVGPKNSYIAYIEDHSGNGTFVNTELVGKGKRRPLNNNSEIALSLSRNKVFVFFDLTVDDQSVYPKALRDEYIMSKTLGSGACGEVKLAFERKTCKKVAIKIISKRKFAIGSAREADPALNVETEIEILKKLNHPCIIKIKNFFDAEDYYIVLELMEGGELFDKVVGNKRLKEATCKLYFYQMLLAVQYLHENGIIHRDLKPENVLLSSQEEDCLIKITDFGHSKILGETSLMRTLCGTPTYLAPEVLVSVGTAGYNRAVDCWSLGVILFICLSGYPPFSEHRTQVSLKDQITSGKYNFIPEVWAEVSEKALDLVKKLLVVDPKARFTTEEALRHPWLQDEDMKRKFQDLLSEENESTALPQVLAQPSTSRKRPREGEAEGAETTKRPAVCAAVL

Work on `Oc1ccc(Cl)cc1-c1nc(N[C@@H]2CNC[C@H]2c2ccccc2)c2ccccc2n1` (relative stereo) [Compound A-063, 4-Chloro-2-(4-(trans-4-phenylpyrrolidin-3-ylamino)quinazolin-2-yl)phenol] yielded an IC50 (following further studies) of 0.3 to 3 µM.
`Oc1ccc(F)cc1-c1nc(N[C@@H]2CNC[C@H]2c2cccc(Cl)c2)c2ccccc2n1` (relative stereo) [Compound A-083] showed an IC50 (following further studies) of 0.3 to 3 µM.
In the case of `O=C(O)[C@@H]1CNC[C@H]1Nc1nc(-c2cc(F)ccc2O)nc2ccccc12` (relative stereo) [Compound A-089, trans-4-(2-(5-Fluoro-2-hydroxyphenyl)quinazolin-4-ylamino)pyrrolidine-3-carboxylic acid], the IC50 (following further studies) is reported as 0.3 to 3 µM.
`COc1ccc([C@@H]2CNC[C@H]2Nc2nc(-c3cc(F)ccc3O)nc3ccccc23)cc1` (relative stereo) [Compound A-090, 4-Fluoro-2-(4-(trans-4-(4-methoxyphenyl)pyrrolidin-3-ylamino)quinazolin-2-yl)phenol] was tested, and the IC50 (following further studies) was ≤ 0.3 µM.
`COc1cccc([C@@H]2CNC[C@H]2Nc2nc(-c3cc(F)ccc3O)nc3ccccc23)c1` (relative stereo) [Compound A-091, 4-Fluoro-2-(4-(trans-4-(3-methoxyphenyl)pyrrolidin-3-ylamino)quinazolin-2-yl)phenol] was tested, and the IC50 (following further studies) was ≤ 0.3 µM.
With `COc1ccccc1[C@@H]1CNC[C@H]1Nc1nc(-c2cc(F)ccc2O)nc2ccccc12` (relative stereo) [Compound A-092, 4-Fluoro-2-(4-trans(4-(2-methoxyphenyl)pyrrolidin-3-ylamino)quinazolin-2-yl)phenol] the IC50 (following further studies) was 0.3 to 3 µM.
In the case of `C[C@@H]1CNC[C@H]1Nc1nc(-c2cc(F)ccc2O)nc2ccccc12` (relative stereo) [Compound A-099, 4-Fluoro-2-(4-(trans-4-methylpyrrolidin-3-ylamino)quinazolin-2-yl)phenol], the IC50 (following further studies) is reported as ≤ 0.3 µM.
`N[C@@H]1CCCC[C@@H]1Nc1nc(-c2ccccc2O)nc2ccccc12` (relative stereo) [Compound B-002] was tested, and the IC50 (first set of tested compounds) was 3 to 30 µM and the IC50 (following further studies) was 3 to 30 µM and 3.8 µM.
With `N[C@@H]1CCCC[C@H]1Nc1nc(-c2ccccc2O)nc2ccccc12` (relative stereo) [Compound B-003, 2-[4-(trans-2-Aminocyclohexylamino)-quinazolin-2-yl]-phenol] the IC50 (first set of tested compounds) was < 3 µM and the IC50 (following further studies) was 0.3 to 3 µM.
For `CN1CCCC(Nc2nc(-c3ccccc3O)nc3ccccc23)C1` (stereo not shown) [Compound A-001, 2-[4-(1-Methyl-piperidin-3-yl-amino)-quinazolin-2-yl]-phenol], the IC50 (first set of tested compounds) was < 3 µM and the IC50 (following further studies) was 0.3 to 3 µM and 1.6 µM.
In the case of `CN1CCC(Nc2nc(-c3ccccc3O)nc3ccccc23)CC1` [Compound A-003, 2-[4-(1-Methylpiperidin-4-ylamino)-quinazolin-2-yl]-phenol], the IC50 (first set of tested compounds) is reported as < 3 µM and the IC50 (following further studies) is reported as 0.3 to 3 µM.
For `CN1CCC[C@H](Nc2nc(-c3ccccc3O)nc3ccccc23)C1` [Compound A-007, 2-[4-((S)-1-Methylpiperidin-3-ylamino)-quinazolin-2-yl]-phenol], the IC50 (first set of tested compounds) was 3 to 30 µM and the IC50 (following further studies) was 3 to 30 µM.
For `CN1CCC[C@@H](Nc2nc(-c3ccccc3O)nc3ccccc23)C1` [Compound A-008, 2-[4-((R)-1-Methylpiperidin-3-ylamino)-quinazolin-2-yl]-phenol], the IC50 (first set of tested compounds) was < 3 µM and the IC50 (following further studies) was 0.3 to 3 µM.
In the case of `Oc1ccccc1-c1nc(N[C@H]2CCN(Cc3ccccc3)C2)c2ccccc2n1` [Compound A-011, 2-[4-((S)-1-Benzylpyrrolidin-3-ylamino)-quinazolin-2-yl]-phenol], the IC50 (first set of tested compounds) is reported as 3 to 30 µM and the IC50 (following further studies) is reported as 3 to 30 µM.
In the case of `Oc1ccc(Cl)cc1-c1nc(N[C@@H]2CCCNC2)c2ccccc2n1` [Compound A-013, (R)-4-Chloro-2-(4-(piperidin-3-ylamino)quinazolin-2-yl)phenol], the IC50 (first set of tested compounds) is reported as < 3 µM and the IC50 (following further studies) is reported as ≤ 0.3 µM.
For `Oc1ccc(F)cc1-c1nc(N[C@@H]2CCCNC2)c2ccccc2n1` [Compound A-014, (R)-4-Fluoro-2-(4-(piperidin-3-ylamino)quinazolin-2-yl)phenol], the IC50 (first set of tested compounds) was < 3 µM and the IC50 (following further studies) was ≤ 0.3 µM.
